Measured values published in patent US10207030B2, “Implantable devices for bone or joint defects” (University of Utah Research Foundation, priority 2013, dated 2019).

Tested on: S. aureus
Experiment: MIC of tobramycin (previously determined)
Type: cell-based
Settings: Staphylococcus aureus

## NC[C@H]1O[C@H](O[C@H]2[C@H](O)[C@@H](O[C@H]3O[C@H](CO)[C@@H](O)[C@H](N)[C@H]3O)[C@H](N)C[C@@H]2N)[C@H](N)C[C@@H]1O [tobramycin]
  MIC: 4 µg/mL
